Laboratory results: ChEMBL document CHEMBL1145258, “Geometry, topology, and atom-weights assembly descriptors to predicting A1 adenosine receptors agonists” (Bioorg Med Chem Lett, 2005)

target: T1, Adenosine receptor A1 (Rattus norvegicus, UniProt P25099); assay: Inhibition of [3H]R-PIA binding to Adenosine A1 receptor from rat brain membrane
T1 sequence (P25099 whole entry): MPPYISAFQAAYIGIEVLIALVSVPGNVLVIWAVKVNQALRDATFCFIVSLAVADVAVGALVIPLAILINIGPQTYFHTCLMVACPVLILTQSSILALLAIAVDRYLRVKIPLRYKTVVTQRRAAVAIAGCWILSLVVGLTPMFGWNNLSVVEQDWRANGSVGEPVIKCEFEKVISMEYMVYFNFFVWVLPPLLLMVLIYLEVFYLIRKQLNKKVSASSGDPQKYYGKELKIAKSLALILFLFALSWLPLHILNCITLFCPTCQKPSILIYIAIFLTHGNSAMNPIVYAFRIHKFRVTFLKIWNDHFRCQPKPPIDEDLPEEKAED

| Ki [nM] | SMILES |
| --- | --- |
| 901 | CCNC(O)[C@H]1O[C@@H](n2cnc3c(NC(=O)Nc4ccc(S(=O)(=O)Nc5cc(C)on5)cc4)ncnc32)[C@H](O)[C@@H]1O (some centres undefined) |
| 725 | CCNC(=O)[C@@H]1OC(n2cnc3c(NC(=O)Nc4ccc(S(=O)(=O)Nc5ncccn5)cc4)ncnc32)[C@@H](O)[C@H]1O (some centres undefined) |
| 16 | CCNC(=O)[C@H]1OC(n2cnc3c(NC(=O)c4ccc(Cl)cc4Cl)ncnc32)[C@H](O)[C@@H]1O (some centres undefined) |
| 292 | CCNC(=O)[C@H]1OC(n2cnc3c(NC(=O)Nc4ccc(S(=O)(=O)Nc5ccccn5)cc4)ncnc32)[C@H](O)[C@@H]1O (some centres undefined) |
